Measurements: US12403111B2, “Compositions and methods for treating neurodevelopmental disorders” (SynGAP Research Fund, priority 2024, dated 2025)
Entries after “also recorded” stand apart in the source; their conditions may differ.

Columns and labels:
[1] = test system: raskol Drosophila eye phenotype; assay: Eye phenotype recovery assay (eye size) over several drug concentrations, SYNGAP1 (raskol) knockdown flies; format: in vivo, Drosophila melanogaster; conditions: for Effect on eye phenotype recovery (eye size): Example 38, multiple drug dilutions vs control
From the text: Increased eye size over control (dark grey) indicates improved phenotype. […]
FIG. 42B depicts the eye size effect of NADL, L-Leucine and beta-hydroxyisovaleric acid on raskol Drosophila eye phenotype over multiple drug dilutions from Example 38.
A prioritized list of top hits was developed to further validate. Priority was place on actionable, safe, and biologically relevant drugs. To validate a top hit, the effect of each drug was tested over three doses. Three concentrations (1, 5, and 25 uM) were compared to a no drug control.

[2] = molecular target: mTORC1 (Homo sapiens, UniProt P42345); conditions: cited from earlier work
[3] = test system: patients with cerebellar ataxia; conditions: 12 out of 20 individuals; cited from earlier work
[4] = test system: animals following unilateral labyrinthectomy; conditions: only minor effects on normal vestibular function; cited from earlier work
[5] = test system: raskol Drosophila eye phenotype; assay: Drug screen (Prestwick Chemical Library) for rescue of degenerate eye in Drosophila model of SYNGAP1; format: in vivo, Drosophila melanogaster; conditions: screen of over 1520 drugs; Z scores >1 indicated improved phenotype
From the text: The invention is also directed in part to a Drosophila melanogaster (fruit fly) model of SYNGAP1. The model is based on eye-specific RNAi knockdown of SYNGAP1, which is called raskol gene in flies. RNAi knockdown of the raskol gene in the eye of Drosophila results in a smaller, degenerate eye (FIG. 1). In one embodiment, the model is used to screen drug that rescue the degenerate eye phenotype in Drosophila melanogaster.
FIG. 7 is a graph of the Z-score of chemical effects on raskol Drosophila eye phenotype. Z scores >1 indicated improved phenotype; Z scores <1 indicated worsened phenotype. The arrow indicates the Z-score positioning of N-Acetyl-L-leucine (NALL).
Drosophila (fruit fly) model of SYNGAP1 was generated. This model is partial loss of function of SYNGAP1, similar to what is observed in humans.
To generate the model, fruit flies were engineered to eliminate SYNGAP1 gene expression in the eye. In flies, the gene is called raskol but herein referred to as SYNGAP1 for clarity. Eye-specific knockdown of SYNGAP1 using RNAi was used. RNAi knockdown of SYNGAP in the eye results in a smaller, disorganized and degenerate eye (FIG. 5).
The model allows for ascertaining therapeutic efficacy of a compound. The efficacy is evidenced by restoration of normal eye appearance upon treatment with the compound. […]

[6] = test system: raskol Drosophila; assay: Induced seizures in raskol Drosophila; format: in vivo, Drosophila melanogaster; conditions: compared to untreated or NADL treated raskol Drosophila
From the text: In addition to the degenerate eye phenotype, raskol Drosophila are prone to induced seizures, as compared to wild type Drosophila.

[7] = test system: tyrosine catabolic process; assay: RNAseq of untreated vs NALL-treated raskol Drosophila; format: in vivo, Drosophila melanogaster; conditions: NALL-treated vs untreated raskol flies; TAT, HPD, FAA
Description: Enzymes TAT, HPD, FAA highlight the differences in RNA expression in the presence of NALL treatment; molecules are all associated with the tyrosine catabolic process.
Finally, RNAseq was performed to compare gene regulation differences between raskol Drosophila untreated and NALL-treated flies.

[8] = molecular target: LAT1 (Homo sapiens, UniProt Q01650); conditions: cited from earlier work
Chain of LAT1 (Q01650 whole entry, species assumed): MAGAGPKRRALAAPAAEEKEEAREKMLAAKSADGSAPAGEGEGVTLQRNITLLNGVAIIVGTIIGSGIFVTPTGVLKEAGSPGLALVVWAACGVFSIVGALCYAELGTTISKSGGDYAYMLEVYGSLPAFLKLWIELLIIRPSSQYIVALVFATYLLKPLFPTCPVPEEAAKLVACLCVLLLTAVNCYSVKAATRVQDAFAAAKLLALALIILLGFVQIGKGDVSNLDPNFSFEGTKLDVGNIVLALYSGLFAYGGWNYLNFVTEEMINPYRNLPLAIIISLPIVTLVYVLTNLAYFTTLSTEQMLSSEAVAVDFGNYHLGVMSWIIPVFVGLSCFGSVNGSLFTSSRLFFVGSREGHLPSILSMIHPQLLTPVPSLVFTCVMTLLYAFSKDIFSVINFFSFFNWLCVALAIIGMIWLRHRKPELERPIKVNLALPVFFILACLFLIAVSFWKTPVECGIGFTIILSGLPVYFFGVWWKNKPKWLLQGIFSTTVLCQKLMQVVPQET
Chain of LAT1 (P08195 102-630 partner, species assumed): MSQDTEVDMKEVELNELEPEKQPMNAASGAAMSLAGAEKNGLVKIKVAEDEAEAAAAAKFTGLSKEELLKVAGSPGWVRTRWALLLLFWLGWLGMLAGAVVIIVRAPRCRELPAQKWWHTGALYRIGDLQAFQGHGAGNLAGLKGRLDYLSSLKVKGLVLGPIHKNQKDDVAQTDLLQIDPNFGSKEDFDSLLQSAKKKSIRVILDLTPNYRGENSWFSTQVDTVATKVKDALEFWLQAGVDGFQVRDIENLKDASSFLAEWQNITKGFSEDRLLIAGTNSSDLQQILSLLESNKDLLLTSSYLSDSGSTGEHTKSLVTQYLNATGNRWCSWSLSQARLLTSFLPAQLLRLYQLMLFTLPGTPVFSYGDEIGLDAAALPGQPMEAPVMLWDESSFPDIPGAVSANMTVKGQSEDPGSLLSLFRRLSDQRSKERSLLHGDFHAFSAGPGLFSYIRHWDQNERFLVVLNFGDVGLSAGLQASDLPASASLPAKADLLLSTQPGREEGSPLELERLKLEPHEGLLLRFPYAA

[9] = test system: mice with experimental traumatic brain injury; conditions: cited from earlier work

CC(C)C[C@H](N)C(=O)O [L-Leucine]
Effect on eye phenotype recovery (eye size) [1]: do not have a significant effect; also recorded: neither NADL nor L-Leucine have a significant effect | Effect on mTORC1 [2]: activates

CC(=O)N[C@@H](CC(C)C)C(=O)O [acetyl-leucine]
Individuals with significant improvements in ataxia [3]: 60% | Vestibular compensation [4]: accelerate vestibular compensation

CC(=O)N[C@@H](CC(C)C)C(=O)O [NALL, N-acetyl-L-leucine]
Z-score of chemical effects on raskol Drosophila eye phenotype [5]: 1.35 | Effect on eye phenotype recovery (eye size) [1]: significant effect on phenotype recovery, as was observed with NALL | Eye phenotype in validation of top hit ([1]; three concentrations (1, 5, and 25 uM) vs no drug control): larger, more organized, less degenerate eye | Recovery time after induced seizures [6]: faster recovery time | Gene regulation differences by RNAseq [7]: Down regulated genes were enriched for tyrosine catabolic processes | Binding or blocking of LAT1 [8]: neither binds nor blocks | Effect on mTORC1 [2]: inhibit or negatively regulate | Autophagy in cortical tissue ([9]; reduced accumulation of autophagosome markers vs controls): increase in autophagy | Motor and cognitive outcomes ([9]; treated mice vs controls): significant improvement in motor and cognitive outcomes

CC(C)(O)CC(=O)O [beta-hydroxyisovaleric acid, Beta-hydroxyisovaleric acid]
Effect on eye phenotype recovery (eye size) [1]: do not have a significant effect

CC(=O)N[C@H](CC(C)C)C(=O)O [NADL, N-acetyl-D-leucine]
Effect on eye phenotype recovery (eye size) [1]: do not have a significant effect; also recorded: neither NADL nor L-Leucine have a significant effect
